{"source": "paper PMC7495481", "about": "“Sequence specificity analysis of the SETD2 protein lysine methyltransferase and discovery of a SETD2 super-substrate” (Communications Biology, 2020)", "key": {"SETD2 [1]": {"target": "T1, SETD2 (Homo sapiens, UniProt Q9BYW2)", "T1 construct": "SETD2 catalytic SET domain (amino acids 1347–1711, UniProt No: Q9BYW2); made in house; host or cells: E. coli", "T1 sequence (Q9BYW2 1347-1711)": "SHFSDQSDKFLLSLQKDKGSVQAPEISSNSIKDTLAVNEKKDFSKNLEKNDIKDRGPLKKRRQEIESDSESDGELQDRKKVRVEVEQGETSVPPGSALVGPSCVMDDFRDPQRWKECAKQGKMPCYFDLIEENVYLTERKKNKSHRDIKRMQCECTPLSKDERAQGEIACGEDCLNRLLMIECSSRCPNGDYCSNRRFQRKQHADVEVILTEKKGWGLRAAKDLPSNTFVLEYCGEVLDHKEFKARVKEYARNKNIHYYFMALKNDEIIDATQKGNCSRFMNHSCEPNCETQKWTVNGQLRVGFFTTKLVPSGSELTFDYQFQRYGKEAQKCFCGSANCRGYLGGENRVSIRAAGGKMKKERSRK", "assay": "Methylation of purified ssK36 and H3K36 peptides, Tricine gel autoradiography", "assay_type": "biochemical", "details": "20 µM peptide, 6 µM SETD2, 0.76 µM AdoMet, 3 h, 25 °C; densitometry, three independent experiments, ± SD", "description": "To compare the methylation rates of the H3K36 and super-substrate peptides directly, purified ssK36 and H3K36 were methylated by SETD2, resolved on a Tricine gel and the methylation activity captured by autoradiography (Fig. 2b). To allow direct comparison of the methylation levels of both substrates, methylated ssK36 was loaded in different dilutions on the same gel.\nThe H3K36 (27–43) and the H3K36M (27–43) peptides were purchased from Intavis AG (Köln, Germany) and the ssK36 peptide (29–43) and the ssK36M peptide (29–43) were from Innovative Peptide Solutions (Berlin, Germany). If not indicated otherwise, peptide methylation reactions were performed using 20 µM peptide and 6 µM SETD2 in 20 µl methylation buffer supplemented with 0.76 µM radioactive labeled AdoMet (PerkinElmer) for 3 h at 25 °C. The reactions were halted by the addition of Tricine-SDS-PAGE loading buffer and incubation for 5 min at 95 °C. Afterward the samples were separated by Tricine-SDS-PAGE, which was followed by the incubation of the gel in amplify NAMP100V (GE Healthcare) for 45 min on a shaker and drying of the gel for 2 h at 55 °C in vacuum. The signals of the transferred radioactive labeled methyl groups were detected by autoradiography using a hyperfilm^TM high performance autoradiography film (GE Healthcare) at −80 °C in the dark. […]"}, "SETD2 [2]": {"target": "T1, SETD2", "assay": "Peptide SPOT array target lysine methylation of selected non-histone peptides (Fig. 3b)", "assay_type": "biochemical", "details": "Exp1–Exp3, 3–6 µM SETD2, 0.76 µM AdoMet, 60 min, pH 9, listed as DS", "description": "However, we could identify 166 possible targets, which contain partial matches to the substrate specificity profile. The possible methylation of these 166 putative substrates was investigated at the peptide level. For this, fifteen amino acid long peptides containing the sequence of the non-histone targets surrounding the predicted target lysine were synthesized on a membrane. The H3K36 (29–43) peptide (spots A1, I9), the super-substrate peptide (spots A3, I11) and the corresponding lysine to alanine mutation peptides (spot A2, I10, and A4, I12) were included as positive and negative controls (Fig. 3a, Supplementary Fig. 4 and Supplementary Table 2). The methylation reactions and the detection of the methylation signals were performed in duplicates as described above. We observed that all of the investigated peptides were more weakly methylated than the super-substrate peptide. […] In the next step, 20 of the peptides were selected for further investigation based on the methylation intensity and the known functions of the proteins to confirm the methylation at the predicted target site. The peptides were synthesized on another membrane, now including the target lysine to alanine mutation control peptides in each case. The methylation reactions and the detection of the signal were conducted as described above (Fig. 3b, Supplementary Fig. 5 and Supplementary Table 3).\nFig. 3 Identification of non-histone substrates of SETD2. a Candidate non-histone peptide substrates were identified in the human proteome based on the SETD2 super-substrate specificity profile. The peptides were synthesized on a peptide SPOT array (Supplementary Table 2) and methylated by SETD2. As controls, the H3K36, H3K36A, ssK36 and ssK36A peptides were included on spots A1–A4 and I9–I12. The autoradiography image is an example of the obtained results. […] The quantification of the data of two experiments is shown in Supplementary Fig. 4. b Analysis of target lysine methylation of selected non-histone substrate peptides. Peptide SPOT arrays were synthesized containing the non-histone peptide substrates identified in panel A in addition to the lysine to alanine mutations presented on the array as every second spot (Supplementary Table 3). As controls, the H3K36, H3K36A, ssK36, and ssK36A mutant peptides were included on spot A1–A4 and C5–C8. The autoradiography image is an example of the obtained results. The quantification of the data of three experiments is shown in Supplementary Fig. 5. Peptides selected for furhter analysis are highlighted by blue circles. c Protein methylation of FBN1 and confirmation of the target lysine methylation. Both wild type (WT) and mutant (K666R) FBN1 were purified and equal amounts were methylated by SETD2 (2 µM). […] The size of FBN1 is indicated by an asterisk.\nPeptide arrays containing fifteen amino acid long peptides were synthesized using the SPOT synthesis method[48] with an Autospot peptide array synthesizer (Intavis AG, Köln, Germany). After synthesis, the obtained membranes were pre-incubated in methylation buffer (20 mM Tris/HCl pH 9, 0.01% Triton X-100, 10 mM DTT, 1.5 mM MgCl2) for 5 min on a shaker. Thereafter, the membranes were incubated in methylation buffer supplemented with 0.76 µM radioactively labeled AdoMet (PerkinElmer) and 3–6 µM SETD2 enzyme for 60 min on a shaker. After methylation, the membranes were washed 5 times for 5 min in wash buffer (100 mM NH4HCO3, 1% SDS) and incubated in amplify NAMP100V (GE Healthcare) for 5 min. This was followed by the exposure of the membranes to a hyperfilm^TM high performance autoradiography (GE Healthcare) film at −80 °C in the dark. The films were developed with an Optimax Typ TR machine after different exposue times. For quantification the signal intensities were measured with the Phoretix^TM software and analyzed with Microsoft Excel."}}, "note": "Several values for one entry are separate records, joined by “and”; a condition that tells them apart may be missing. Identical values can stand only once.", "data": [{"sequence": "APRFGGVKRPNRYRP [ssK36, super-substrate peptide with four amino acid exchanges (A31R, T32F, K37R, H39N)]", "values": [{"measurement": "fold more efficient methylation of ssK36 than wild type H3K36 peptide", "setting": "SETD2 [1]", "value": "50 ± 4", "unit": "fold"}, {"measurement": "Relative methylation signal, Average", "setting": "SETD2 [2]", "value": "0.95 and 0.9901"}]}]}
